Test results reported in publication PMC11412900 (Molecular Psychiatry, 2024).
Read-outs that look alike come from different tables or passages of the source.

Legend:
[1] = test system: horizontal locomotor activity in mice; assay: Horizontal locomotor activity (HLA); type: in vivo; conditions: i.p., 30 min; for HLA (hypolocomotion) Emax (95% CI): total traveled distance
Description: The HLA test was carried out according to a previous study. The same animals (N = 8–10 per group) used for the assessment of HTR were recorded for 30 min in an observation arena, under low-light conditions with white noise. Video recordings were processed using a tracking software (Smart 3.0 Panlab, Barcelona, Spain) to measure the total traveled distance.
(§1) Data were expressed as means±standard deviation (SD). Competition, release and functional assays, and substrate-induced current curves were plotted and fitted by non-linear regression to obtain the IC50, EC50, and Emax values. For behavioral studies, data were fitted by non-linear regression and pED50 and Emax values (with the corresponding 95% CI) were estimated by means of a software (GraphPad Prism 10) that further extrapolates the data. The Cheng-Prusoff equation was used to calculate Ki (affinity): Ki = […]/(1 + [radioligand-concentration/Kd]). HTR curves were fitted using a Gaussian equation as described. Data from batch release assays were statistically analyzed with a mixed-effects model, employing Šidák’s correction for multiple comparisons. Total release at each concentration and the behavioral experiments with the corresponding antagonists were statistically analyzed using one-way ANOVA, followed by Tukey’s post-hoc test. Molecular volume (van der Waals) was calculated using a grid approximation (spacing 0.75 Å). logP was calculated using Molinspiration Cheminformatics software. For in vivo studies, one-way ANOVA with Dunnet’s post-hoc test was used to compare all conditions to saline in dose-response experiments when data were normally distributed. Otherwise, a non-parametric test (Kruskall-Wallis with Dunn’s post-hoc test) was used. Alpha was set at 0.05. Outliers were excluded following ROUT’s method (Q = 0.1%). All statistical analyses and Pearson correlations were conducted using GraphPad Prism 10 software (GraphPad software, San Diego, CA, USA).

SERT = biological target: T1, SERT (Homo sapiens, UniProt P31645); assay: [3H]5-HT uptake inhibition in HEK293 cells expressing hSERT; type: cell-based
T1 construct: YFP (yellow-fluorescent protein); expressed in transfected cells
T1 sequence (P31645 whole entry): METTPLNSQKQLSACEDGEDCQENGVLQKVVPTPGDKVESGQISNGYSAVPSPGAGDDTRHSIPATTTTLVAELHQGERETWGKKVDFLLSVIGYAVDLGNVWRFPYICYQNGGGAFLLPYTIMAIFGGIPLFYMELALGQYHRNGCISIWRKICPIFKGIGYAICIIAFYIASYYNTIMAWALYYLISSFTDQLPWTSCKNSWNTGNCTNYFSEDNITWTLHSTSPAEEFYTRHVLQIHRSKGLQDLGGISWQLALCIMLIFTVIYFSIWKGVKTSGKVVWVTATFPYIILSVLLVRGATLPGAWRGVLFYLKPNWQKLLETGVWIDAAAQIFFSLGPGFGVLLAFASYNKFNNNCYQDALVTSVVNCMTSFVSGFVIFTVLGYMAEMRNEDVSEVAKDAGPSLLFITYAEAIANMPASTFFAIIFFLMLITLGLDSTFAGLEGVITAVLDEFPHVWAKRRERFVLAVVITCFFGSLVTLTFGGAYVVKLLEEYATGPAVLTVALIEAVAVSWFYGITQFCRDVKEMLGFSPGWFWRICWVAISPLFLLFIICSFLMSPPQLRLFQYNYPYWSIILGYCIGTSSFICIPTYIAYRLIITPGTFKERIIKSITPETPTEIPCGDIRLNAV
Description: See the Supplementary Material for cell culture procedures. The medium was removed from each well and replaced with 200 μL/well of Krebs-HEPES-Buffer (KHB). The cells were pre-incubated for 5 min with different concentrations of drug in KHB at 50 μL/well. […] The incubation solution was aspirated and the cells were washed with ice-cold KHB and lysed with 1% sodium dodecyl sulfate (SDS). The lysate was collected into vials and scintillation liquid was added. The radioactivity was quantified using a beta-scintillation counter (Perkin Elmer, Waltham, MA, USA). Non-specific uptake was determined in the presence of 30 μM paroxetine. Data were expressed as percentage of control uptake (absence of tryptamine).
The generation and maintenance of HEK293 cells stably expressing the yellow-fluorescent protein (YFP)-tagged version of the human isoform of SERT (hSERT) (Perkin Elmer, Waltham, MA, USA) was carried out as described previously. For uptake inhibition and batch release assays, cells were seeded onto previously poly-D-lysine (PDL)-coated 96-well plates at a density of 0.036 million cells per well [5]. For superfusion release assays, cells were seeded onto a previously coated with PDL 6 channel µ-slide at a density of 0.08 million cells per channel. Prior to patching, cells were grown in DMEM containing 10% FBS, Zeocin (150 µg/mL) and Blasticidin (6 µg/mL) for positive selection of transporter-expressing clones. The cells were seeded at a low density on PDL-coated 35 mm plates 24-48 hr prior to patching. For membrane preparation, HEK293 cells expressing hSERT transporters were harvested from 80–90% confluent dishes as described elsewhere. Protein concentration was determined using the Bio-RadProtein Reagent (Bio Rad Laboratories, Hercules, CA, USA). Membrane preparations were stored at −80°C until use. Generation and maintenance of CHO-K1 cells expressing the human isoform of 5-HT2AR (h5-HT2AR) was carried out as described in the manufacturer’s protocol (Perkin Elmer, Waltham, MA, USA). Routine DAPI-Staining assays tested negative in mycoplasma contamination.

[2] = test system: head twitch response in mice; assay: Head twitch response (HTR); type: in vivo; conditions: mice, i.p.; for HTR Emax (95% CI): 10-min period
Description: HTR studies were adapted from. Mice (N = 8–10 per group) were injected intraperitoneally (i.p.) with saline or the appropriate tryptamine dose (0.3, 1, 3, 10, or 30 mg/kg) and placed into the observation arena (25 × 25 × 40 cm). A camera mounted above the observation cage recorded the mice for the next 10 min after the injection. Another batch of animals (N = 8–10) received subcutaneous injections of either saline or the respective antagonist (WAY100635 1 mg/kg for 5-HT1AR or ketanserin 1 mg/kg for 5-HT2AR). After a 10-min interval, the animals were i.p. injected with the corresponding tryptamine (10 mg/kg) and placed in the observation arena. Animal behavior was recorded for the next 10 min after the last injection, as mentioned before. Video recordings were examined by two blind observers blinded to the treatments, who assessed the number of head twitches, defined as a rapid rotational jerk of the head which is not contiguous with any grooming behavior [39].
as §1

[3] = read-out: 5-HT uptake inhibition IC50 ± SD, HEK293 hSERT, N ≥ 3

Compound	HLA (hypolocomotion) ED50 [1] [mg/kg]	HLA (hypolocomotion) Emax (95% CI) [1]	IC50 (SERT; [3]) [µM]	HTR Emax (95% CI) [2]	HTR ED50 ([2]; 10 min after injection) [mg/kg]	ED50 ([1]; Mus musculus, ip, 0.5 h, read-out: HLA (hypolocomotion) ED50) [mg/kg]	IC50 (SERT) [µM]	ED50 ([2]; Mus musculus, ip, 10 min, 10 min after injection) [mg/kg]
C=CCN(CC=C)CCc1c[nH]c2ccc(OC)cc12 [5-MeO-DALT]	6.22	73.11 (57.45–88.78) % reduction	22.3	10.4 (8.5–12.4) HTR events	4.16			
CCN(CC)CCc1c[nH]c2ccc(OC)cc12 [5-MeO-DET]	4.78	63.56 (37.58–89.53) % reduction	60	9.73 (7.61–11.85) HTR events	2.32			
COc1ccc2[nH]cc(CCN(C(C)C)C(C)C)c2c1 [5-MeO-DIPT, 5-methoxy-N,N-diisopropyltryptamine]		55.32 (38.20–72.44) % reduction		10.5 (8.5–12.5) HTR events		4.52	24.2	0.477
CCN(CCc1c[nH]c2ccc(OC)cc12)C(C)C [5-MeO-EIPT]	4.82	68.02 (54.57–81.46) % reduction	22.2	9.27 (7.10–11.44) HTR events	10.6			
CCN(C)CCc1c[nH]c2ccc(OC)cc12 [5-MeO-MET]	1.70	66.79 (58.20–75.37) % reduction	30.1	28.4 (23.5–33.2) HTR events	2.72			
COc1ccc2[nH]cc(CCN(C)C(C)C)c2c1 [5-MeO-MIPT]	6.57	82.78 (62.16–103.4) % reduction	29.8	14.19 (11.7–16.68) HTR events	0.791			
COc1ccc2[nH]cc(CCN3CCCC3)c2c1 [5-MeO-pyr-T]	1.60	71.25 (60.71–81.79) % reduction	2.77 ± 1.43	10.0 (6.9–13.1) HTR events	7.29			
